Legend:
[1] = test system: MCF7; test: Growth inhibition of human MCF7 cells at 10 uM after 48 hrs; assay type: functional; settings: MCF7, 48 h, read-out: GI
[2] = test system: SR; test: Growth inhibition of human SR cells at 10 uM after 48 hrs; assay type: functional; settings: read-out: GI
[3] = test system: NCI-H522; test: Growth inhibition of human NCI-H522 cells at 10 uM after 48 hrs; assay type: functional; settings: NCI-H522, 48 h, read-out: GI
[4] = target: T1, Dihydrofolate reductase (Bos taurus, UniProt P00376); test: Inhibition of bovine liver DHFR
T1 sequence (P00376 whole entry): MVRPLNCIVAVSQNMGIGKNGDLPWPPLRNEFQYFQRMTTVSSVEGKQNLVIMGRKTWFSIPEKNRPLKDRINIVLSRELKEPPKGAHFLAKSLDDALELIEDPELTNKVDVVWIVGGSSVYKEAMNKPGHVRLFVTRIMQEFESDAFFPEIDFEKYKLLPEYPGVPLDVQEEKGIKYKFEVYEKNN

[5] = test system: Staphylococcus aureus; test: Antimicrobial activity against Staphylococcus aureus assessed as inhibition zone at 200 ug/disk after 24 hrs by disc-diffusion method; assay type: functional; settings: read-out: IZ
[6] = Growth inhibition of human UO31 cells at 10 uM after 48 hrs; assay type: functional; settings: UO-31, 48 h, read-out: GI
[7] = test system: Candida albicans; test: Antimicrobial activity against Candida albicans assessed as inhibition zone at 200 ug/disk after 24 hrs by disc-diffusion method; assay type: functional; settings: read-out: IZ
[8] = test system: Bacillus subtilis; test: Antimicrobial activity against Bacillus subtilis assessed as inhibition zone at 200 ug/disk after 24 hrs by disc-diffusion method; assay type: functional; settings: read-out: IZ
[9] = test system: Escherichia coli; test: Antimicrobial activity against Escherichia coli assessed as inhibition zone at 200 ug/disk after 24 hrs by disc-diffusion method; assay type: functional; settings: read-out: IZ
[10] = test system: Pseudomonas aeruginosa; test: Antimicrobial activity against Pseudomonas aeruginosa assessed as inhibition zone at 200 ug/disk after 24 hrs by disc-diffusion method; assay type: functional; settings: read-out: IZ
[11] = Growth inhibition of human SF295 cells at 10 uM after 48 hrs; assay type: functional; settings: SF-295, 48 h, read-out: GI
[12] = test system: MDA-MB-468; test: Growth inhibition of human MDA-MB-468 cells at 10 uM after 48 hrs; assay type: functional; settings: MDA-MB-468, 48 h, read-out: GI
[13] = Growth inhibition of human PC3 cells at 10 uM after 48 hrs; assay type: functional; settings: PC-3, 48 h, read-out: GI
[14] = Growth inhibition of human HOP92 cells at 10 uM after 48 hrs; assay type: functional; settings: HOP-92, 48 h, read-out: GI
[15] = test system: T47D; test: Growth inhibition of human T47D cells at 10 uM after 48 hrs; assay type: functional; settings: read-out: GI
[16] = test system: HL-60(TB); test: Growth inhibition of human HL-60(TB) cells at 10 uM after 48 hrs; assay type: functional; settings: HL-60, 48 h, read-out: GI

Compound | inhibition of growth at 10 µM [1] [%] | inhibition of growth at 10 µM [2] [%] | inhibition of growth at 10 µM [3] [%] | IC50 [4] [µM] | zone of inhibition at 200 µg/disc [5] [mm] | inhibition of growth at 10 µM [6] [%] | zone of inhibition at 200 µg/disc [7] [mm] | zone of inhibition at 200 µg/disc [8] [mm] | zone of inhibition at 200 µg/disc [9] [mm] | zone of inhibition at 200 µg/disc [10] [mm] | inhibition of growth at 10 µM [11] [%] | inhibition of growth at 10 µM [12] [%] | inhibition of growth at 10 µM [13] [%] | inhibition of growth at 10 µM [14] [%] | inhibition of growth at 10 µM [15] [%] | inhibition of growth at 10 µM [16] [%]
COc1cc2nc(Sc3sc(N)nc3C)n(-c3ccccc3)c(=O)c2cc1OC | 21.7 | 15 | 25.6 | 7 | 8 | 32.3 | 8 | 8 | 8 | 8 |  |  |  |  |  | 
COc1cc2nc(Sc3nnc(N)s3)n(-c3ccccc3)c(=O)c2cc1OC |  |  |  | 10 | 8 | 14.2 | 8 | 8 | 8 | 8 | 10.6 | 10.4 | 10.9 | 15.4 |  | 
Cc1nc(N)sc1Sc1nc2ccc(Cl)cc2c(=O)n1-c1ccccc1 | 18 |  |  | 5 | 8 | 32.6 | 8 | 8 | 8 | 8 |  |  |  |  | 14.3 | 
COc1ccc(-n2c(Sc3nnc(N)s3)nc3cc(OC)c(OC)cc3c2=O)cc1 |  |  |  | 7 | 8 |  | 8 | 8 | 8 | 8 |  |  |  | 33.7 |  | 
Nc1nnc(Sc2nc3ccc(Cl)cc3c(=O)n2-c2ccc(Oc3ccccc3)cc2)s1 |  |  |  | 0.4 | 8 | 17 | 8 | 8 | 8 | 8 |  |  |  |  |  | 12

— ChEMBL document CHEMBL3352542, “Synthesis, biological evaluation and molecular modeling study of 2-(1,3,4-thiadiazolyl-thio and 4-methyl-thiazolyl-thio)-quinazolin-4-ones as a new class of DHFR inhibitors” (Bioorg Med Chem Lett, 2014)
